A short description of data set [1]: Assay (IV) determination of solubility. It counts as physicochemical. How it is done: Assay (IV)—Determination of Solubility
The mimylin peptide was dissolved in water at ˜500 nmol/ml and mixed 1:1 with a series of buffers (100 mM glycylglycine pH 3.0, 100 mM glycylglycine pH 4.0, 100 mM glycylglycine pH 5.0, 100 mM bistrispropane pH 6.0, 100 mM bistrispropane pH 6.5, 100 mM bistrispropane pH 7.0, 100 mM bistrispropane pH 7.5, 100 mM bistrispropane pH 8.0).

In data set [2] the target is T1, rat calcitonin receptor (Rattus norvegicus, UniProt P32214).
T1 construct: expressed in transfected cells; host or cells: BHK tk'ts 13 (transient, FuGENE 6)
T1 sequence (P32214 25-479 isoform P32214-2 limits assumed): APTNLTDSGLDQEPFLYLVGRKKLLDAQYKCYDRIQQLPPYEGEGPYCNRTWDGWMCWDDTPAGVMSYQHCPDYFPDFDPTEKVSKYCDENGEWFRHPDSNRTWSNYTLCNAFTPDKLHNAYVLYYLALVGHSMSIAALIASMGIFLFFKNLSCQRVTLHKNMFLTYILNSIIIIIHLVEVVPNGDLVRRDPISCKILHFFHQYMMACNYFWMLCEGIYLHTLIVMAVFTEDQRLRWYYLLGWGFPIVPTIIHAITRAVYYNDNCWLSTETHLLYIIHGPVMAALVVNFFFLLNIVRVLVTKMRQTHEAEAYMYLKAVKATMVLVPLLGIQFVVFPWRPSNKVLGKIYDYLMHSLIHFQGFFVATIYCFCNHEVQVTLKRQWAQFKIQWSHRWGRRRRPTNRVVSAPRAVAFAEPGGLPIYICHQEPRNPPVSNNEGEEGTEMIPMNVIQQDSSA
The experiment in a line: Assay (VIII) binding to the rat calcitonin receptor. The conditions noted are these: membranes; read-out: rCT-R binding IC50. How it is done:
The morning after, the plates were washed three times in HBSS (4° C.), and lyzed in Lysis buffer (0.1 M NaOH), 1% SDS. Scintillation cocktail (MicroScint40®) was added and the plates were shaken at 500 rpm for a short period. The plate was incubated at room temperature in the dark for 1 hour and Read on a TopCounter™ (Packard). The IC50 was calculated using (one site binding competition analysis) GraphPad Prism5 as a measure of receptor affinity. Assay (VIII)—Determination of Binding to the Rat Calcitonin Receptor
The assay was performed as described above (Assay (VII)—Determination of binding to the human calcitonin receptor) with the exception that we used membranes prepared from BHK tk'ts 13 cells that were transiently transfected with the rat calcitonin receptor. The BHK tk'ts 13 cells were transiently transfected with rat calcitonin receptor using FuGENE® 6 (Roche), according to the manufacturer's recommendations. Cells were grown in DMEM with 10% FBS and 1% Pen/Strep.

Each structure is given as a SMILES string. pIC50: −log10 of the molar value. Values after ≈ are worked out from the molar mass of the structure shown. Numbered stars: 1 amine (or outer) side, 2 acyl side, 3 side chain; on linkers, the order of the positions; unused ones are H or OH. Peptide text beside a SMILES is read from it. * marks the point of attachment. C20 diacid = O=C(O)CCCCCCCCCCCCCCCCCCC(=O)*; C16 diacid = O=C(O)CCCCCCCCCCCCCCC(=O)*; γGlu = O=C(O)[C@H](CCC(=O)[*:2])N[*:1]; AEEA = NCCOCCOCC(=O)O

Data on 5 compounds can be found in patent US9593149B2, “Amylin and calcitonin receptor agonist” (Novo Nordisk A/S, priority 2014, dated 2017).

Broadly, the pIC50 is −log10 of the IC50, conventionally taken in molar units. The solubility is the concentration that dissolves in the medium under given conditions. Higher therefore signals much dissolved substance.

Consider `CC(C)C[C@H](NC(=O)[C@H](C)NC(=O)[C@H](C)NC(=O)[C@@H](NC(=O)[C@H](CO)NC(=O)[C@H](CC(C)C)NC(=O)[C@H](CCC(=O)O)NC(=O)[C@H](CO)NC(=O)[C@H](C)NC(=O)COCCOCCNC(=O)CC[C@H](NC(=O)CCCCCCCCCCCCCCCCCCC(=O)O)C(=O)O)[C@@H](C)O)C(=O)NCC(=O)N[C@@H](CCCNC(=N)N)C(=O)N[C@@H](CC(C)C)C(=O)N[C@@H](CO)C(=O)N[C@@H](C)C(=O)N[C@@H](CCC(=O)O)C(=O)N[C@@H](CC(C)C)C(=O)N[C@@H](Cc1cnc[nH]1)C(=O)N[C@@H](CCC(=O)O)C(=O)N[C@@H](CC(C)C)C(=O)N[C@@H](C)C(=O)N[C@H](C(=O)N[C@@H](CC(C)C)C(=O)N1CCC[C@H]1C(=O)N[C@@H](CCCNC(=N)N)C(=O)N[C@H](C(=O)N[C@@H](CCC(=O)O)C(=O)N[C@H](C(=O)NCC(=O)N[C@@H](CO)C(=O)NCC(=O)N[C@@H](CO)C(=O)N1CCC[C@H]1C(N)=O)[C@@H](C)O)[C@@H](C)O)[C@@H](C)O` [compound 41, [N-terminal(C20 diacid-gGlu-OEG), des1, 30S, 31G]mimylin] ({C20 diacid-γGlu-AEEA}-ASELSTAALGRLSAELHELATLPRTETGSGSP-NH2), for which the Solubility result in data set [1] (pH 3.0), in data set [1] (pH 4.0), in data set [1] (pH 5.0), in data set [1] (pH 6.0), in data set [1] (pH 6.5) and in data set [1] (pH 7.0) was “≧200 μM” throughout. The Solubility entry in data set [1] (pH 7.5) and in data set [1] (pH 8.0) was “≧200 μM” throughout. In data set [2], the negative-log IC50 (pIC50) was 10.36.
As for `CC(C)C[C@H](NC(=O)[C@H](C)NC(=O)[C@H](C)NC(=O)[C@@H](NC(=O)[C@H](CO)NC(=O)[C@H](CC(C)C)NC(=O)[C@H](CCC(=O)O)NC(=O)[C@H](CO)NC(=O)[C@H](C)NC(=O)CC[C@H](NC(=O)CCCCCCCCCCCCCCC(=O)O)C(=O)O)[C@@H](C)O)C(=O)NCC(=O)N[C@@H](CCCNC(=N)N)C(=O)N[C@@H](CC(C)C)C(=O)N[C@@H](CO)C(=O)N[C@@H](C)C(=O)N[C@@H](CCC(=O)O)C(=O)N[C@@H](CC(C)C)C(=O)N[C@@H](Cc1cnc[nH]1)C(=O)N[C@@H](CCC(=O)O)C(=O)N[C@@H](CC(C)C)C(=O)N[C@@H](C)C(=O)N[C@H](C(=O)N[C@@H](CC(C)C)C(=O)N1CCC[C@H]1C(=O)N[C@@H](CCCNC(=N)N)C(=O)N[C@H](C(=O)N[C@@H](CCC(=O)O)C(=O)N[C@H](C(=O)NCC(=O)N[C@@H](CO)C(=O)NCC(=O)N[C@@H](CO)C(=O)N1CCC[C@H]1C(N)=O)[C@@H](C)O)[C@@H](C)O)[C@@H](C)O` [compound 47, [N-terminal(C16 diacid-gGlu), des1, 30S, 31G]mimylin] ({C16 diacid-γGlu}-ASELSTAALGRLSAELHELATLPRTETGSGSP-NH2), the Solubility entry in data set [1] (pH 3.0), in data set [1] (pH 4.0), in data set [1] (pH 5.0), in data set [1] (pH 6.0), in data set [1] (pH 6.5) and in data set [1] (pH 7.0) was “≧200 μM” throughout. Besides, the Solubility result in data set [1] (pH 7.5) and in data set [1] (pH 8.0) was “≧200 μM” in each case. The negative-log IC50 (pIC50) in data set [2] was 10.89.
Take `CC(C)C[C@H](NC(=O)CNC(=O)[C@H](CO)NC(=O)[C@H](CC(C)C)NC(=O)[C@H](CCC(=O)O)NC(=O)CC[C@H](NC(=O)CCCCCCCCCCCCCCCCCCC(=O)O)C(=O)O)C(=O)N[C@@H](CO)C(=O)N[C@H](C(=O)N[C@@H](CC(C)C)C(=O)N[C@H](C(=O)N[C@@H](CC(C)C)C(=O)NCC(=O)N[C@@H](CCCNC(=N)N)C(=O)N[C@@H](CC(C)C)C(=O)N[C@@H](CO)C(=O)N[C@@H](CCC(N)=O)C(=O)N[C@@H](CCC(=O)O)C(=O)N[C@@H](CC(C)C)C(=O)N[C@@H](Cc1cnc[nH]1)C(=O)N[C@@H](CCC(=O)O)C(=O)N[C@@H](CC(C)C)C(=O)N[C@@H](CCC(N)=O)C(=O)N[C@H](C(=O)N[C@@H](Cc1ccc(O)cc1)C(=O)N1CCC[C@H]1C(=O)N[C@@H](CCCNC(=N)N)C(=O)N[C@H](C(=O)NCC(=O)N[C@H](C(=O)NCC(=O)N[C@@H](CO)C(=O)NCC(=O)N[C@H](C(=O)N[C@@H](Cc1ccc(O)cc1)C(N)=O)[C@@H](C)O)[C@@H](C)O)[C@@H](C)O)[C@@H](C)O)C(C)C)[C@@H](C)O` [compound 129, [N-terminal(C20 diacid-gGlu), 2L, 4G, 8L, 9V, 15Q, 21Q, 23Y, 27G, 30S, 31G, 32T, 33Y]mimylin] ({C20 diacid-γGlu}-ELSGLSTLVLGRLSQELHELQTYPRTGTGSGTY-NH2): the Solubility entry in data set [1] (pH 3.0) and in data set [1] (pH 4.0) was “≧200 μM” throughout. For the same compound, the solubility at 18 h in data set [1] (pH 5.0) was determined as 1 µM (≈ 4.02 µg/mL); in data set [1] (pH 6.0), 1 µM (≈ 4.02 µg/mL); in data set [1] (pH 6.5) it was 1 µM (≈ 4.02 µg/mL); in data set [1] (pH 7.0), 1 µM (≈ 4.02 µg/mL); in data set [1] (pH 7.5), 52 µM (≈ 209 µg/mL); in data set [1] (pH 8.0) it was 185 µM (≈ 743 µg/mL).
Take `CC(C)C[C@H](NC(=O)CNC(=O)[C@H](CO)NC(=O)[C@H](C)NC(=O)CC[C@H](NC(=O)CCCCCCCCCCCCCCCCCCC(=O)O)C(=O)O)C(=O)N[C@@H](CO)C(=O)N[C@H](C(=O)N[C@@H](C)C(=O)N[C@H](C(=O)N[C@@H](CC(C)C)C(=O)NCC(=O)N[C@@H](CCCNC(=N)N)C(=O)N[C@@H](CC(C)C)C(=O)N[C@@H](CO)C(=O)N[C@@H](CCC(N)=O)C(=O)N[C@@H](CCC(=O)O)C(=O)N[C@@H](CC(C)C)C(=O)N[C@@H](Cc1cnc[nH]1)C(=O)N[C@@H](CCC(=O)O)C(=O)N[C@@H](CC(C)C)C(=O)N[C@@H](CCC(N)=O)C(=O)N[C@H](C(=O)N[C@@H](CC(C)C)C(=O)N[C@@H](CCC(N)=O)C(=O)N[C@H](C(=O)N[C@@H](Cc1ccc(O)cc1)C(=O)N1CCC[C@H]1C(=O)N[C@@H](CCCNC(=N)N)C(=O)N[C@H](C(=O)N[C@@H](CCC(=O)O)C(=O)N[C@H](C(=O)NCC(=O)N[C@@H](CO)C(=O)N[C@@H](CCC(N)=O)C(=O)N[C@H](C(=O)N[C@@H](Cc1ccc(O)cc1)C(N)=O)[C@@H](C)O)[C@@H](C)O)[C@@H](C)O)[C@@H](C)O)[C@@H](C)O)C(C)C)[C@@H](C)O` [compound 130, [N-terminal(C20 diacid-gGlu), des1, 4G, 9V, 15Q, 21Q, 23aQ, 23bT, 23cY, 30S, 31Q, 32T, 33Y]mimylin] ({C20 diacid-γGlu}-ASGLSTAVLGRLSQELHELQTLQTYPRTETGSQTY-NH2): the Solubility result in data set [1] (pH 3.0), in data set [1] (pH 6.0), in data set [1] (pH 6.5), in data set [1] (pH 7.0), in data set [1] (pH 7.5) and in data set [1] (pH 8.0) was “≧200 μM” in each case. For the same compound, the solubility at 18 h in data set [1] (pH 4.0) worked out at 174 µM (≈ 746 µg/mL); in data set [1] (pH 5.0), 9 µM (≈ 38.6 µg/mL).
Turning to `CC(C)C[C@H](NC(=O)[C@H](CCCNC(=N)N)NC(=O)CNC(=O)[C@H](CC(C)C)NC(=O)[C@@H](NC(=O)[C@H](C)NC(=O)[C@@H](NC(=O)[C@H](CO)NC(=O)[C@H](CC(C)C)NC(=O)[C@H](CCC(N)=O)NC(=O)[C@H](CO)NC(=O)[C@H](C)NC(=O)CC[C@H](NC(=O)CCCCCCCCCCCCCCCCCCC(=O)O)C(=O)O)[C@@H](C)O)C(C)C)C(=O)N[C@@H](CO)C(=O)N[C@@H](CCC(N)=O)C(=O)N[C@@H](CCCNC(=N)N)C(=O)N[C@@H](CC(C)C)C(=O)N[C@@H](Cc1cnc[nH]1)C(=O)N[C@@H](CCCNC(=N)N)C(=O)N[C@@H](CC(C)C)C(=O)N[C@@H](CCC(N)=O)C(=O)N[C@H](C(=O)N[C@@H](Cc1ccc(O)cc1)C(=O)N1CCC[C@H]1C(=O)N[C@@H](CCCNC(=N)N)C(=O)N[C@H](C(=O)N[C@@H](CCC(N)=O)C(=O)N[C@H](C(=O)NCC(=O)N[C@@H](CO)C(=O)N[C@@H](CCC(N)=O)C(=O)N[C@H](C(=O)N[C@@H](Cc1ccc(O)cc1)C(N)=O)[C@@H](C)O)[C@@H](C)O)[C@@H](C)O)[C@@H](C)O` [compound 132, [N-terminal(C20 diacid-gGlu), des1, 4Q, 9V, 15Q, 16R, 19R, 21Q, 23Y, 27Q, 30S, 31Q, 32T, 33Y]mimylin] ({C20 diacid-γGlu}-ASQLSTAVLGRLSQRLHRLQTYPRTQTGSQTY-NH2), the negative logarithm of the IC50 (pIC50) in data set [2] was 10.16.
